# Values of other authors, collected in patent publication US20050004010A1, “Cobalamin conjugates useful as imaging agents and as antitumor agents” (Mayo Foundation For Medical Education, priority 1999, published 2005).
# Conditions: L isomer versus D isomer
smiles,measurement,value
COc1cccc2c1C(=O)c1c(O)c3c(c(O)c1C2=O)C[C@@](O)(C(C)=O)C[C@@H]3O[C@H]1C[C@H](NC(=O)[C@@H](N)CC(C)C)C(O)[C@H](C)O1 (stereo partly drawn) [N-(L-leucyl) daunorubicin],hydrolysis in vivo to regenerate daunorubicin,hydrolyzed in vivo to regenerate daunorubicin
